The test system of one assay is iGluSnFR-HEK cells. Description: iGluSnFR-HEK cells cultured alone, multiphoton imaging. The format is cell-based. As to conditions: glutamate 100 μM. As for the experimental part: HEK 293/17 cells (ATCC CRL-11268) were maintained in DMEM (Gibco 11965) supplemented with 10% FBS (Corning 35-010-CV), Glutamax, and non-essential amino acids (both Gibco). Cells were transfected with 1 ug plasmid pCMV(MinDis) iGluSnFR (Addgene 41732) using 1 ul Lipofectamine 2000 in Optimem (Gibco) in 24-well plates.
The 5.2 Kb iGluSnFR (pCMV(MinDis).iGluSnFR was a gift from Loren Looger; Addgene plasmid #41732) was moved to the zeocin resistant backbone of Addgene #51694 (DRH296: FCK-Optopatch2 was a gift from Adam Cohen) as a NdeI+XhoI fragment. The resulting plasmid (pMEK8) was transfected into HEK 293/17 cells (ATCC CRL-11268) using 1 μl Lipofectamine 2000/ug DNA. Cells were maintained in DMEM (Gibco 11965) supplemented with 10% FBS (Corning 35-010-CV), Glutamax, non-essential amino acids (both Gibco) and 3 μl/ml zeocin ([…], Invitrogen).
CckCRE_tdTomato enteroendocrine cells were isolated as described above. Isolated cells were mixed with iGluSnFR-HEK cells at a ratio of 10:1, then plated on 1% Matrigel coated coverslips. Control iGluSnFR-HEK cells were plated alone. Cells were incubated for 12-18 hours before imaging. Coverslips were imaged using a multiphoton microscopy system (Bruker Ultima IV with a Chameleon Vision II tunable laser). Imaging frames were captured at 1.876 fps, using 920 nm light. Imaging series were analyzed using Fiji (ImageJ), and cell traces were plotted with Excel.

For another assay, the system named is glutamate receptor. Nature of the assay: Antagonist studies: glutamate receptor antagonists on vagal nerve firing rate response to sucrose or 473 nm laser. It is filed as in vivo, mouse. As to conditions: sucrose-300 mM; for time to peak (speed) of vagal response to sucrose: after KA/AP3 (150 μg/kg kynurenic acid + 1 mg/kg AP-3) or KA 150 μg/kg alone, sucrose alone 92.8 seconds, 1 mg/kg. As to the method:
Wild-type control (n=5-9), CckCRE_ChR2-tdTomato (n=6), CckCRE_Halorhodopsin-YFP (n=5), and Vglut1CRE_ChR2-YFP (n=6) mice were used for vagal recordings. Mice were anesthetized with 3 mg/g-mouse urethane 1 hour before surgery then with 0.5-1% isoflurane. A section of neck skin was removed between the jaw and clavicle. The thyroid was reflected bilaterally, and the carotid bundle was exposed using coarse dissection. The carotid nerve was separated from the vagus nerve using a curved blunt probe. Two platinum iridium wires (0.001″ diameter, PTFE coated, 10% Ir 90% Pt; Medwire by Sigmund Cohn Corp) were looped around the vagus nerve for recording. Mineral oil was used to insulate the vagus nerve from surrounding tissue. The small intestine was exposed by removing a section of skin and peritoneum. A 20 gauge gavage needle was surgically inserted through the stomach wall and into the duodenum. The gavage needle was sutured in place beyond the pyloric sphincter. Saline and stimulant tubes were connected to the gavage needle. For optogenetic experiments, a fiber optic cable (FT020, ThorLabs) was threaded through the gavage needle into the lumen of the duodenum. A perfusion exit incision was made 10 cm distal to the pyloric sphincter. During each recording, PBS was constantly perfused through the duodenum using a peristaltic pump (Cole-Parmer) at the lowest setting for a flow rate of ˜400 uL PBS per minute. Stimulation conditions were applied after recording 2 minutes of baseline activity. During whole nutrient stimulation conditions, PBS perfusion was continuous and 200 μL of ENSURE® was perfused through the second tube for 1 minute using a syringe pump. […] During CCK stimulation conditions, PBS perfusion was continuous, and 200 μL of 2.9 μM CCK octapeptide-sulfated (BaChem) was perfused through the second tube for 1 minute using a syringe pump (Fusion 200, Chemyx) for a final concentration of ˜870 nM CCK in PBS (10 μg/kg dose). […] Final stimulant concentrations were determined using the ratio of dilution and confirmed by osmolarity testing (Model 3320 Osmometer, Advanced Instruments Inc.). […]
Extracellular voltage was recorded from a pair of platinum iridium wires as described above. […] The raw data was analyzed using a spike sorting algorithm (MATLAB by MathWorks). Spikes were detected using simple threshold detection based on RMS noise. The firing rate was calculated using a Gaussian kernel smoothing algorithm (200-ms time scale).
Stimulation response was quantified as the maximum firing rate after stimulation (stimulant conditions) or during recording (baseline). […] Maximum firing rate was analyzed across genotype, stimulation condition, and their interaction term by ANOVA, followed by HSD post hoc testing (iMP by SAS Institute).

In assay [1] the test system is ionotropic glutamate receptor. Description: Patch-clamp of nodose neurons co-cultured with CckCRE_ChR2 cells, photo-stimulation and microperfusion of glutamate blocker. It is filed as cell-based, mouse. As to conditions: kynurenic acid 3 mM, n=4 pairs. As for the experimental part: The small intestines of CckGFP and CckCRE_ChR2-tdTomato mice were dissected and flushed twice with cold PBS. The intestine was cut open lengthwise and cut again into ˜1 cm pieces. Tissue pieces were incubated with 3 mM EDTA at 4° C. for 15 minutes then at 37° C. for 15 minutes. New cold PBS was added and villi and crypts were mechanically detached. Villi and crypts were spun down and further digested in Collagenase and Dispase. Cells were spun down and re-suspended in L-15 media with 5% FBS and DNase to prevent cell clumping. Cells were passed through a 70 μm then 40 μm cell strainer to isolate single cells. Then cells were sorted using Fluorescence Activated Cell sorting (BD FACSAria) selecting for GFP fluorescence cells. […]
Enteroendocrine cells and nodose neurons were co-cultured as described above. […] CCK-producing enteroendocrine cells were identified by GFP expression and neurons by their morphology and lack of fluorescence. […] At the resting membrane potential, cell properties such as input resistance, and spike threshold were determined using 200 ms steps from −40 pA to 100 pA in 20 pA increment. After that, baseline neuron activity was recorded in current-clamp or voltage-clamp for 5 min before exposure to glucose (20 mM) for 30-60 sec, followed by a wash with no glucose-containing extracellular solution. […] EPSC responses were recorded for 1 second after light stimulation. […]
Background: In patch-clamp work, channel activity is measured electrically.

Assay [2] has as its system vagus nerve. Nature of the assay: Vagus nerve recording during intraluminal (duodenal) nutrient or CCK perfusion. It is filed as in vivo, mouse. As to conditions: for time to maximum peak firing rate after the onset of the stimulus: CCK 870 nM or sucrose 300 mM intraluminal, FIG. 30C. As to the method:
Wild-type control (n=5-9), CckCRE_ChR2-tdTomato (n=6), CckCRE_Halorhodopsin-YFP (n=5), and Vglut1CRE_ChR2-YFP (n=6) mice were used for vagal recordings. Mice were anesthetized with 3 mg/g-mouse urethane 1 hour before surgery then with 0.5-1% isoflurane. A section of neck skin was removed between the jaw and clavicle. The thyroid was reflected bilaterally, and the carotid bundle was exposed using coarse dissection. The carotid nerve was separated from the vagus nerve using a curved blunt probe. Two platinum iridium wires (0.001″ diameter, PTFE coated, 10% Ir 90% Pt; Medwire by Sigmund Cohn Corp) were looped around the vagus nerve for recording. Mineral oil was used to insulate the vagus nerve from surrounding tissue. The small intestine was exposed by removing a section of skin and peritoneum. A 20 gauge gavage needle was surgically inserted through the stomach wall and into the duodenum. The gavage needle was sutured in place beyond the pyloric sphincter. Saline and stimulant tubes were connected to the gavage needle. For optogenetic experiments, a fiber optic cable (FT020, ThorLabs) was threaded through the gavage needle into the lumen of the duodenum. A perfusion exit incision was made 10 cm distal to the pyloric sphincter. During each recording, PBS was constantly perfused through the duodenum using a peristaltic pump (Cole-Parmer) at the lowest setting for a flow rate of ˜400 uL PBS per minute. Stimulation conditions were applied after recording 2 minutes of baseline activity. During whole nutrient stimulation conditions, PBS perfusion was continuous and 200 μL of ENSURE® was perfused through the second tube for 1 minute using a syringe pump. […] During CCK stimulation conditions, PBS perfusion was continuous, and 200 μL of 2.9 μM CCK octapeptide-sulfated (BaChem) was perfused through the second tube for 1 minute using a syringe pump (Fusion 200, Chemyx) for a final concentration of ˜870 nM CCK in PBS (10 μg/kg dose). […] Final stimulant concentrations were determined using the ratio of dilution and confirmed by osmolarity testing (Model 3320 Osmometer, Advanced Instruments Inc.). During 473 nm laser stimulation conditions, PBS perfusion was continuous, and the laser was pulsed for 1 minute at 40 Hz, 4 volts peak voltage, 20% duty cycle (473 nm, 80 mW laser, RGBlase).
Extracellular voltage was recorded from a pair of platinum iridium wires as described above. A differential amplifier and bandpass filter (1000× gain, 300 Hz-5 kHz bandpass filter; A-M Systems LLC) was used and the signal was processed using a data acquisition board and software (20 kHz sampling rate; Signal Express, National Instruments Corp). The raw data was analyzed using a spike sorting algorithm (MATLAB by MathWorks). Spikes were detected using simple threshold detection based on RMS noise. The firing rate was calculated using a Gaussian kernel smoothing algorithm (200-ms time scale).
Stimulation response was quantified as the maximum firing rate after stimulation (stimulant conditions) or during recording (baseline). Each trial serves as its own control by normalizing the maximum firing rate to the average baseline firing rate (defined as the first two minutes of recording, prior to stimulation onset). Mice were excluded from analysis if no sucrose response was present throughout recording. Maximum firing rate was analyzed across genotype, stimulation condition, and their interaction term by ANOVA, followed by HSD post hoc testing (iMP by SAS Institute).

The test system of assay [3] is intestinal CCK enteroendocrine cells. Nature of the assay: Calcium imaging (GCaMP6s) of enteroendocrine cells in CckCRE_tdTomato intestinal organoids. As to conditions: 10 mM sucrose; 40 mM KCl control; n=5. It is filed as cell-based, mouse. As for the experimental part:
For neurons, Phox2bCRE_GCaMP6s (n=3) nodose neurons were dissociated and plated. Nodose ganglia were dissected and digested in Liberase (Roche, 5401054001). Neurons were washed and filtered through a 70 μm cell strainer, then plated on 12 mm coverslips and placed in an incubator overnight. Cells were imaged 1-2 days later. Coverslips were placed in the recording chamber of a Zeiss Examiner Z1 and imaged with a Hamamatsu camera (Orca-flash4.0; C11440) using the Zeiss ZEN software package. For enteroendocrine cells, CckCRE_tdTomato organoids with transduced with ΔG-rabies-GCaMP6s. Organoids were imaged using multi photon microscopy 3-4 days after transduction. Imaging buffer (in mM: 140 NaCl, 5 KCl, 2 CaCl2, 2 MgCl2, 10 HEPES) was continuously perfused over the coverslips. […] Images were analyzed with Fiji ([…]), and cell traces were plotted with Matlab.

The test system of assay [4] is vagus nerve. Nature of the assay: Vagus nerve recording during intraluminal (duodenal) nutrient or CCK perfusion. As to conditions: sucrose 300 mM delivered intraperitoneally, wild-type mice. The format is in vivo, mouse.

Entries after “also recorded” stand apart in the source; their conditions may differ.

`N[C@@H](CCC(=O)O)C(=O)O` [glutamate, reference compound]: the “fluorescence response of iGluSnFR-HEK cells cultured alone” value in the assay on iGluSnFR-HEK cells was “did respond; also recorded: causes an increase in fluorescence”.
Take `O=C(O)c1cc(=O)c2ccccc2[nH]1` [kynurenic acid]: the “effect on maximum (peak) normalized vagal firing rate in response to sucrose” value with glutamate receptor (KA/AP3 = 150 μg/kg kynurenic acid + 1 mg/kg AP-3, or KA 150 μg/kg alone, wild-type mice) is on record as “do not”. Besides, the “time to peak (speed) of vagal response to sucrose” value in the assay with glutamate receptor is “about 180 seconds”; in the assay on glutamate receptor (listed as KA), 198 s. The “effect on rapid (first 60 seconds) vagal response to sucrose” value with glutamate receptor (kynurenic acid alone (150 μg/kg; dose range 1.5 μg/kg-1.5 mg/kg in FIG. 32), 1.5 mg/kg) is “suppressed; also recorded: attenuates rapid vagal response but not prolonged vagal response”. For the same molecule, the “effect on light (470/473 nm) evoked EPSCs in connected nodose neurons” value in assay [1] is reported as “abolished”. The “light evoked response after the blocker is washed away” value in assay [1] (wash) is “recovered”.
For `OC[C@H]1O[C@@](CO)(O[C@H]2O[C@H](CO)[C@@H](O)[C@H](O)[C@H]2O)[C@@H](O)[C@@H]1O` [sucrose], the “time to maximum peak firing rate after the onset of the stimulus” value in the assay on vagus nerve [2] (wild-type mice) is “about 60 s”. Moreover, the vagal response result in the assay with vagus nerve [2] (luminal sucrose 300 mM, CckCRE_Halo-YFP mice, no laser) is reported as “elicited a vagal response”. Besides, the vagal firing rate result in the assay on vagus nerve [2] (sucrose 100 mM-300 mM (300 mM in figures) perfused intraluminally, wild-type mice, vs baseline) is “significantly increased; also recorded: stimulate”; in the assay on vagus nerve [4], “not observed; also recorded: did not increase vagal firing rate”. Moreover, in the assay on vagus nerve [2] (sucrose-300 mM without antagonist, wild-type mice, average, FIG. 25D), the “time to peak of vagal response” value turned out to be 92.8 s. For the same molecule, the vagal activity result with vagus nerve [2] (sucrose-300 mM, Vglut1CRE_ChR2 mice) is “stimulate vagal activity”. In addition, the “magnitude of the sugar response as percent fluorescence of the KCl response” value in assay [3] came out at 72.4±10.6%.
Regarding “CCK8: CCK octapeptide-sulfated (BaChem) [reference compound]”, in the assay with vagus nerve [2] (wild-type mice), the “time to maximum peak firing rate after the onset of the stimulus” value is on record as “about 180 s”. Further, the “vagal firing rate (maximum)” value with vagus nerve [2] (CCK8 870 nM (10 μg/kg) infused into the intestinal lumen, wild-type mice) is on record as “increased the vagal firing rate to a similar maximum reached by sucrose”.

The values above are taken from patent publication US20200147149A1, “COMPOSITIONS AND METHODS FOR THE MODULATION OF GUT SENSORY CELLS” (Duke University, priority 2017, published 2020).
